Data taken from US7939526B2, “Sulfone substituted imidazo ring ethers” (3M Innovative Properties Company, priority 2003, dated 2011).

| Structure (SMILES) | melting point [°C] |
| --- | --- |
| CS(=O)(=O)CCOCCn1cnc2c(N)nc3ccccc3c21 [Example 3, 1-{2-[2-(Methylsulfonyl)ethoxy]ethyl}-1H-imidazo[4,5-c]quinolin-4-amine] | 145 to 148 |
| COCc1nc2c(N)nc3ccccc3c2n1CC(C)(C)OCCS(C)(=O)=O [Example 38, 2-(Methoxymethyl)-1-{2-methyl-2-[2-(methylsulfonyl)ethoxy]propyl}-1H-imidazo[4,5-c]quinolin-4-amine] | 186 to 189 |
| Cc1nc2c(N)nc3c(c2n1CCOCCS(C)(=O)=O)CCCC3 [Example 10, 1-{2-[2-(Methylsulfonyl)ethoxy]ethyl}-2-methyl-6,7,8,9-tetrahydro-1H-imidazo[4,5-c]quinolin-4-amine] | 173 to 175 |
| CCCc1nc2c(N)nc3ccccc3c2n1CCOCCCS(=O)(=O)c1ccccn1 [Example 16, 2-Propyl-1-(2-{3-[(pyridin-2-yl)sulfonyl]propoxy}ethyl)-1H-imidazo[4,5-c]quinolin-4-amine] | 150 to 151 |
| CCCCCCCCCCS(=O)(=O)CCCOCCn1c(CCC)nc2c(N)nc3ccccc3c21 [Example 20, 1-{2-[3-(Decane-1-sulfonyl)propoxy]ethyl}-2-propyl-1H-imidazo[4,5-c]quinolin-4-amine] | 84 to 86 |
| CCCCc1nc2c(N)nc3ccccc3c2n1CC(C)(C)OCCS(C)(=O)=O [Example 32, 2-Butyl-1-{2-methyl-2-[2-(methylsulfonyl)ethoxy]propyl}-1H-imidazo[4,5-c]quinolin-4-amine] | 196 to 198 |
| CCc1nc2c(N)nc3c(c2n1CCOCCS(C)(=O)=O)CCCC3 [Example 12, 2-Ethyl-1-{2-[2-(methylsulfonyl)ethoxy]ethyl}-6,7,8,9-tetrahydro-1H-imidazo[4,5-c]quinolin-4-amine] | 146 to 148 |
| CCCc1nc2c(N)nc3c(c2n1CCOCCS(C)(=O)=O)CCCC3 [Example 11, 1-{2-[2-(Methylsulfonyl)ethoxy]ethyl}-2-propyl-6,7,8,9-tetrahydro-1H-imidazo[4,5-c]quinolin-4-amine] | 153 to 155 |
| CCOCc1nc2c(N)nc3cccnc3c2n1CC(C)(C)OCCS(C)(=O)=O [Example 40, 2-Ethoxymethyl-1-{2-[2-(methylsulfonyl)ethoxy]-2-methylpropyl}-1H-imidazo[4,5-c][1,5]naphthyridin-4-amine] | 189 to 191 |
| CCCc1nc2c(N)nc3ccccc3c2n1CCOCCS(C)(=O)=O [Example 4, 1-{2-[2-(Methylsulfonyl)ethoxy]ethyl}-2-propyl-1H-imidazo[4,5-c]quinolin-4-amine] | 150 to 152 |
| CCOCc1nc2c(N)nc3ccccc3c2n1CC1(OCCS(C)(=O)=O)CCCCC1 [Example 24, 2-(Ethoxymethyl)-1-({1-[2-(methylsulfonyl)ethoxy]cyclohexyl}methyl)-1H-imidazo[4,5-c]quinolin-4-amine] | 159 to 161 |
| CCCCc1nc2c(N)nc3ccccc3c2n1CCOCCS(C)(=O)=O [Example 2, 2-Butyl-1-{2-[2-(methylsulfonyl)ethoxy]ethyl}-1H-imidazo[4,5-c]quinolin-4-amine] | 168 to 170 |
| CCCCCCc1nc2c(N)nc3ccccc3c2n1CCOCCS(C)(=O)=O [Example 25, 2-Hexyl-1-{2-[2-(methylsulfonyl)ethoxy]ethyl}-1H-imidazo[4,5-c]quinolin-4-amine] | 158 to 160 |
| CCc1nc2c(N)nc3ccccc3c2n1CC(C)(C)OCCS(C)(=O)=O [Example 36, 2-Ethyl-1-{2-methyl-2-[2-(methylsulfonyl)ethoxy]propyl}-1H-imidazo[4,5-c]quinolin-4-amine] | 206 to 209 |
| CCCc1nc2c(N)nc3ccccc3c2n1CCOCCCS(=O)(=O)c1ccccc1C [Example 15, 1-(2-{3-[(2-Methylphenyl)sulfonyl]propoxy}ethyl)-2-propyl-1H-imidazo[4,5-c]quinolin-4-amine] | 159 to 160 |
| CCCc1nc2c(N)nc3c(c2n1CC(C)(C)OCCS(C)(=O)=O)CCCC3 [Example 35, 1-{2-Methyl-2-[2-(methylsulfonyl)ethoxy]propyl}-2-propyl-6,7,8,9-tetrahydro-1H-imidazo[4,5-c]quinolin-4-amine] | 188 to 190 |
| CC(C)(Cn1cnc2c(N)nc3ccccc3c21)OCCS(C)(=O)=O [Example 29, 1-{2-Methyl-2-[2-(methylsulfonyl)ethoxy]propyl}-1H-imidazo[4,5-c]quinolin-4-amine] | 261 to 264 |
| CCOCc1nc2c(N)nc3ccccc3c2n1CC(C)(C)OCCS(C)(=O)=O [Example 9, 2-Ethoxymethyl-1-{2-[2-(methylsulfonyl)ethoxy]-2-methylpropyl}-1H-imidazo[4,5-c]quinolin-4-amine] | 183 to 185 |
| CCOCc1nc2c(N)nc3ccccc3c2n1CCOCCS(C)(=O)=O [Example 6, 2-(Ethoxymethyl)-1-{2-[2-(methylsulfonyl)ethoxy]ethyl}-1H-imidazo[4,5-c]quinolin-4-amine] | 158 to 160 |
| Cc1nc2c(N)nc3c(c2n1CC(C)(C)OCCS(C)(=O)=O)CCCC3 [Example 30, 2-Methyl-1-{2-methyl-2-[2-(methylsulfonyl)ethoxy]propyl}-6,7,8,9-tetrahydro-1H-imidazo[4,5-c]quinolin-4-amine] | 226 to 229 |
| CCOCc1nc2c(N)nc3ccccc3c2n1CC1(OCCS(C)(=O)=O)CC1 [Example 34, 2-(Ethoxymethyl)-1-({1-[2-(methylsulfonyl)ethoxy]cyclopropyl}methyl)-1H-imidazo[4,5-c]quinolin-4-amine] | 169 to 171 |
| CC(C)(Cn1cnc2c(N)nc3c(c21)CCCC3)OCCS(C)(=O)=O [Example 31, 1-{2-Methyl-2-[2-(methylsulfonyl)ethoxy]propyl}-6,7,8,9-tetrahydro-1H-imidazo[4,5-c]quinolin-4-amine] | 219 to 223 |
| CCOCc1nc2c(N)nc3c(c2n1CC(C)(C)OCCS(C)(=O)=O)CCCC3 [Example 28, 2-(Ethoxymethyl)-1-{2-methyl-2-[2-(methylsulfonyl)ethoxy]propyl}-6,7,8,9-tetrahydro-1H-imidazo[4,5-c]quinolin-4-amine] | 150 to 153 |
| CCc1nc2c(N)nc3ccccc3c2n1CCOCCS(C)(=O)=O [Example 5, 2-Ethyl-1-{2-[2-(methylsulfonyl)ethoxy]ethyl}-1H-imidazo[4,5-c]quinolin-4-amine] | 160 to 163 |
| CCOCc1nc2c(N)nc3ccccc3c2n1CC1(OCCS(C)(=O)=O)CCC1 [Example 26, 2-(Ethoxymethyl)-1-({1-[2-(methylsulfonyl)ethoxy]cyclobutyl}methyl)-1H-imidazo[4,5-c]quinolin-4-amine] | 221 to 223 |
| CCCc1nc2c(N)nc3ccccc3c2n1CCOCCCS(C)(=O)=O [Example 19, 1-{2-[3-(Methylsulfonyl)propoxy]ethyl}-2-propyl-1H-imidazo[4,5-c]quinolin-4-amine] | 149 to 151 |

The remaining lines, values ahead:

| melting point [°C] | Structure (SMILES) |
| --- | --- |
| 225 to 227 | CCc1nc2c(N)nc3c(c2n1CC(C)(C)OCCS(C)(=O)=O)CCCC3 [Example 37, 2-Ethyl-1-{2-methyl-2-[2-(methylsulfonyl)ethoxy]propyl}-6,7,8,9-tetrahydro-1H-imidazo[4,5-c]quinolin-4-amine] |
| 214 to 217 | Cc1nc2c(N)nc3ccccc3c2n1CCOCCS(C)(=O)=O [Example 1, 2-Methyl-1-{2-[2-(methylsulfonyl)ethoxy]ethyl}-1H-imidazo[4,5-c]quinolin-4-amine] |
| 142 to 144 | COCCc1nc2c(N)nc3ccccc3c2n1CCOCCS(C)(=O)=O [Example 7, 2-(2-Methoxyethyl)-1-{2-[2-(methylsulfonyl)ethoxy]ethyl}-1H-imidazo[4,5-c]quinolin-4-amine] |
| 160 to 161 | CCCc1nc2c(N)nc3ccccc3c2n1CCOCCCS(=O)(=O)c1ccccc1 [Example 13, 1-{2-[3-(Phenylsulfonyl)propoxy]ethyl}-2-propyl-1H-imidazo[4,5-c]quinolin-4-amine] |
| 186 to 188 | CCOCc1nc2c(N)nc3c(c2n1CC1(OCCS(C)(=O)=O)CCC1)CCCC3 [Example 27, 2-(Ethoxymethyl)-1-({1-[2-(methylsulfonyl)ethoxy]cyclobutyl}methyl)-6,7,8,9-tetrahydro-1H-imidazo[4,5-c]quinolin-4-amine] |
| 187 to 189 | CCOCc1nc2c(N)nc3ccccc3c2n1CC(C)(C)OCCS(=O)(=O)c1ccccc1 [Example 8, 2-Ethoxymethyl-1-{2-[2-(phenylsulfonyl)ethoxy]-2-methylpropyl}-1H-imidazo[4,5-c]quinolin-4-amine] |
| 176 to 177 | CCCc1nc2c(N)nc3ccccc3c2n1CCOCCCS(=O)(=O)C(C)C [Example 14, 1-(2-{3-[(1-Methylethyl)sulfonyl]propoxy}ethyl)-2-propyl-1H-imidazo[4,5-c]quinolin-4-amine] |
| 99 to 101 | CCCc1nc2c(N)nc3ccccc3c2n1CCOCCCSC [Example 17, 1-{2-[3-(Methylthio)propoxy]ethyl}-2-propyl-1H-imidazo[4,5-c]quinolin-4-amine] |
| 203 to 206 | CCCc1nc2c(N)nc3ccccc3c2n1CC(C)(C)OCCS(C)(=O)=O [Example 22, 1-{2-Methyl-2-[2-(methylsulfonyl)ethoxy]propyl}-2-propyl-1H-imidazo[4,5-c]quinolin-4-amine] |
| 148 to 151 | CCCc1nc2c(N)nc3ccccc3c2n1CCOCCC[S+](C)[O-] (stereo not drawn) [Example 18] |
| 163 to 165 | CCOCc1nc2c(N)nc3ccccc3c2n1CC1(OCCS(C)(=O)=O)CCCC1 [Example 23, 2-(Ethoxymethyl)-1-({1-[2-(methylsulfonyl)ethoxy]cyclopentyl}methyl)-1H-imidazo[4,5-c]quinolin-4-amine] |
| 253 to 255 | Cc1nc2c(N)nc3ccccc3c2n1CC(C)(C)OCCS(C)(=O)=O [Example 21, 2-Methyl-1-{2-methyl-2-[2-(methylsulfonyl)ethoxy]propyl}-1H-imidazo[4,5-c]quinolin-4-amine] |
| 146 to 148 | CCCCc1nc2c(N)nc3c(c2n1CC(C)(C)OCCS(C)(=O)=O)CCCC3 [Example 33, 2-Butyl-1-{2-methyl-2-[2-(methylsulfonyl)ethoxy]propyl}-6,7,8,9-tetrahydro-1H-imidazo[4,5-c]quinolin-4-amine] |
